Key:
Format in all cases: in vivo
[1] = system: barnyardgrass (Echinochloa crus-galli); assay: Test G Pre-Emergence Protocol; conditions: Echinochloa crus-galli, pre-emergence, 312 h, evaluated after 13 days; for pest or weed control at 15.625 g/ha: 15.625 g ai/ha, read-out: Barnyard grass damage rating (100=total damage to plant; 0=no damage to plant); for pest or weed control at 62.5 g/ha: 62.5 g ai/ha, 100=total damage to plant, 0=no damage to plant, read-out: plant damage rating, Barnyardgrass; for pest or weed control at 250 g/ha: 250 g ai/ha, read-out: Barnyardgrass damage rating (100=total damage to plant; 0=no damage to plant)
Summary of the method: (§1)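 Under a 24/16° C day/night regime with 14 h light and 65% humidity, sown pots were sprayed after one day with compound (15.625, 62.5 or 250 g/ha; 50:50 acetone/water, 0.5% Tween 20). Damage was assessed visually 13 days later, 0 to 100.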

[2] = system: ivy-leaved morning glory (Ipomoea hederacea); assay: Test G Pre-Emergence Protocol; conditions: Ipomoea, pre-emergence, 312 h, evaluated after 13 days; for pest or weed control at 15.625 g/ha: 15.625 g ai/ha, read-out: Morning-glory, Ivy-leaved damage rating (100=total damage to plant; 0=no damage to plant); for pest or weed control at 62.5 g/ha: 62.5 g ai/ha, 100=total damage to plant, 0=no damage to plant, read-out: plant damage rating, Morningglory, Ivy-leaved; for pest or weed control at 250 g/ha: 250 g ai/ha, read-out: Morningglory, Ivy-leaved damage rating (100=total damage to plant; 0=no damage to plant)
Summary of the method: as §1

[3] = system: corn (Zea mays); assay: Test G Pre-Emergence Protocol; conditions: Zea mays, pre-emergence, 312 h, evaluated after 13 days; for plant injury at 15.625 g/ha: 15.625 g ai/ha; for plant injury at 15.625 g/ha / plant injury at 250 g/ha: read-out: Corn damage rating (100=total damage to plant; 0=no damage to plant); for plant injury at 62.5 g/ha: 62.5 g ai/ha, 100=total damage to plant, 0=no damage to plant, read-out: plant damage rating, Corn; for plant injury at 250 g/ha: 250 g ai/ha
Summary of the method: as §1

[4] = system: giant foxtail (Setaria faberi); assay: Test G Pre-Emergence Protocol; conditions: Setaria faberi, pre-emergence, 312 h, evaluated after 13 days; for pest or weed control at 15.625 g/ha: 15.625 g ai/ha; for pest or weed control at 15.625 g/ha / pest or weed control at 250 g/ha: read-out: Foxtail, Giant damage rating (100=total damage to plant; 0=no damage to plant); for pest or weed control at 62.5 g/ha: 62.5 g ai/ha, 100=total damage to plant, 0=no damage to plant, read-out: plant damage rating, Foxtail, Giant; for pest or weed control at 250 g/ha: 250 g ai/ha
Summary of the method: as §1

[5] = system: velvetleaf (Abutilon theophrasti); assay: Test G Pre-Emergence Protocol; conditions: Abutilon theophrasti, pre-emergence, 312 h, evaluated after 13 days; for pest or weed control at 15.625 g/ha: 15.625 g ai/ha; for pest or weed control at 15.625 g/ha / pest or weed control at 250 g/ha: read-out: Velvetleaf damage rating (100=total damage to plant; 0=no damage to plant); for pest or weed control at 62.5 g/ha: 62.5 g ai/ha, 100=total damage to plant, 0=no damage to plant, read-out: plant damage rating, Velvetleaf; for pest or weed control at 250 g/ha: 250 g ai/ha
Summary of the method: as §1

[6] = system: redroot pigweed (Amaranthus retroflexus); assay: Test G Pre-Emergence Protocol; conditions: Amaranthus retroflexus, pre-emergence, 312 h, evaluated after 13 days; for pest or weed control at 15.625 g/ha: 15.625 g ai/ha; for pest or weed control at 15.625 g/ha / pest or weed control at 250 g/ha: read-out: Pigweed, Redroot damage rating (100=total damage to plant; 0=no damage to plant); for pest or weed control at 62.5 g/ha: 62.5 g ai/ha, 100=total damage to plant, 0=no damage to plant, read-out: plant damage rating, Pigweed, Redroot; for pest or weed control at 250 g/ha: 250 g ai/ha
Summary of the method: as §1

[7] = system: barnyardgrass (Echinochloa crus-galli); assay: Test G Post-Emergence Protocol; conditions: Echinochloa crus-galli, post-emergence, 312 h; for pest or weed control at 15.625 g/ha: 15.625 g ai/ha, evaluated after 13 days (100=total damage to plant; 0=no damage to plant), read-out: Barnyardgrass damage rating; for pest or weed control at 62.5 g/ha: 62.5 g ai/ha, read-out: Barnyardgrass damage rating (100=total damage to plant; 0=no damage to plant); for pest or weed control at 62.5 g/ha / pest or weed control at 250 g/ha: evaluated after 13 days; for pest or weed control at 250 g/ha: 250 g ai/ha, read-out: damage to plant, Barnyardgrass (100=total damage to plant; 0=no damage to plant)
Summary of the method: (§2)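 Damage was rated 13 days after treatment from 0 (none) to 100 (plant killed). Compound was applied as a spray at 15.625, 62.5 or 250 g/ha in 50:50 acetone/water containing 0.5% Tween 20, onto 8-day-old potted plants kept in a glasshouse (24/16 °C, 14 h light, 65% humidity).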

[8] = system: ivy-leaved morning glory (Ipomoea hederacea); assay: Test G Post-Emergence Protocol; conditions: Ipomoea, post-emergence, 312 h; for pest or weed control at 15.625 g/ha: 15.625 g ai/ha, evaluated after 13 days (100=total damage to plant; 0=no damage to plant), read-out: Morningglory, Ivy-leaved damage rating; for pest or weed control at 62.5 g/ha: 62.5 g ai/ha, read-out: Morningglory, Ivy-leaved damage rating (100=total damage to plant; 0=no damage to plant); for pest or weed control at 62.5 g/ha / pest or weed control at 250 g/ha: evaluated after 13 days; for pest or weed control at 250 g/ha: 250 g ai/ha, read-out: damage to plant, Morningglory, Ivy-leaved (100=total damage to plant; 0=no damage to plant)
Summary of the method: as §2

[9] = system: corn (Zea mays); assay: Test G Post-Emergence Protocol; conditions: Zea mays, post-emergence, 312 h; for plant injury at 15.625 g/ha: 15.625 g ai/ha, evaluated after 13 days (100=total damage to plant; 0=no damage to plant), read-out: Corn damage rating; for plant injury at 62.5 g/ha: 62.5 g ai/ha, read-out: Corn damage rating (100=total damage to plant; 0=no damage to plant); for plant injury at 62.5 g/ha / plant injury at 250 g/ha: evaluated after 13 days; for plant injury at 250 g/ha: 250 g ai/ha, read-out: damage to plant, Corn (100=total damage to plant; 0=no damage to plant)
Summary of the method: as §2

[10] = system: giant foxtail (Setaria faberi); assay: Test G Post-Emergence Protocol; conditions: Setaria faberi, post-emergence, 312 h; for pest or weed control at 15.625 g/ha: 15.625 g ai/ha, evaluated after 13 days (100=total damage to plant; 0=no damage to plant), read-out: Foxtail, Giant damage rating; for pest or weed control at 62.5 g/ha: 62.5 g ai/ha, read-out: Foxtail, Giant damage rating (100=total damage to plant; 0=no damage to plant); for pest or weed control at 62.5 g/ha / pest or weed control at 250 g/ha: evaluated after 13 days; for pest or weed control at 250 g/ha: 250 g ai/ha, read-out: damage to plant, Foxtail, Giant (100=total damage to plant; 0=no damage to plant)
Summary of the method: as §2

[11] = system: velvetleaf (Abutilon theophrasti); assay: Test G Post-Emergence Protocol; conditions: Abutilon theophrasti, post-emergence, 312 h; for pest or weed control at 15.625 g/ha: 15.625 g ai/ha, evaluated after 13 days (100=total damage to plant; 0=no damage to plant), read-out: Velvetleaf damage rating; for pest or weed control at 62.5 g/ha: 62.5 g ai/ha, read-out: Velvetleaf damage rating (100=total damage to plant; 0=no damage to plant); for pest or weed control at 62.5 g/ha / pest or weed control at 250 g/ha: evaluated after 13 days; for pest or weed control at 250 g/ha: 250 g ai/ha, read-out: damage to plant, Velvetleaf (100=total damage to plant; 0=no damage to plant)
Summary of the method: as §2

[12] = system: redroot pigweed (Amaranthus retroflexus); assay: Test G Post-Emergence Protocol; conditions: Amaranthus retroflexus, post-emergence, 312 h; for pest or weed control at 15.625 g/ha: 15.625 g ai/ha, evaluated after 13 days (100=total damage to plant; 0=no damage to plant), read-out: Pigweed, Redroot damage rating; for pest or weed control at 62.5 g/ha: 62.5 g ai/ha, read-out: Pigweed, Redroot damage rating (100=total damage to plant; 0=no damage to plant); for pest or weed control at 62.5 g/ha / pest or weed control at 250 g/ha: evaluated after 13 days; for pest or weed control at 250 g/ha: 250 g ai/ha, read-out: damage to plant, Pigweed, Redroot (100=total damage to plant; 0=no damage to plant)
Summary of the method: as §2

Structure (SMILES) | pest or weed control at 15.625 g/ha [1] | pest or weed control at 62.5 g/ha [1] | pest or weed control at 250 g/ha [1] | pest or weed control at 15.625 g/ha [2] | pest or weed control at 62.5 g/ha [2] | pest or weed control at 250 g/ha [2] | plant injury at 15.625 g/ha [3] | plant injury at 62.5 g/ha [3] | plant injury at 250 g/ha [3] | pest or weed control at 15.625 g/ha [4] | pest or weed control at 62.5 g/ha [4] | pest or weed control at 250 g/ha [4] | pest or weed control at 15.625 g/ha [5] | pest or weed control at 62.5 g/ha [5] | pest or weed control at 250 g/ha [5] | pest or weed control at 15.625 g/ha [6] | pest or weed control at 62.5 g/ha [6] | pest or weed control at 250 g/ha [6] | pest or weed control at 15.625 g/ha [7] | pest or weed control at 62.5 g/ha [7] | other results
COc1nccc(NC(=O)[C@@H]2C(=O)N(C)C[C@H]2c2ccc(C(F)(F)F)cc2)n1 (racemic) [Compound 1640] | 0% | 0% | 0% | 0% | 0% | 0% | 0% | 0% | 0% | 0% | 0% | 0% | 0% | 0% | 0% | 0% | 0% | 0% | 0% | 0% | pest or weed control at 250 g/ha [7]: 0%; pest or weed control at 15.625 g/ha [8]: 0%; pest or weed control at 62.5 g/ha [8]: 0%; pest or weed control at 250 g/ha [8]: 0%; plant injury at 15.625 g/ha [9]: 0%; plant injury at 62.5 g/ha [9]: 0%; plant injury at 250 g/ha [9]: 0%; pest or weed control at 15.625 g/ha [10]: 0%; pest or weed control at 62.5 g/ha [10]: 0%; pest or weed control at 250 g/ha [10]: 0%; pest or weed control at 15.625 g/ha [11]: 0%; pest or weed control at 62.5 g/ha [11]: 0%; pest or weed control at 250 g/ha [11]: 0%; pest or weed control at 15.625 g/ha [12]: 0%; pest or weed control at 62.5 g/ha [12]: 0%; pest or weed control at 250 g/ha [12]: 0%
Cc1c(NC(=O)[C@H]2C(=O)N(C)C[C@@H]2c2ccc(C(F)(F)F)cc2)cccc1[N+](=O)[O-] (racemic) [Compound 1423] | 10% | 10% | 30% | 0% | 0% | 0% | 10% | 20% | 10% | 10% | 60% | 70% | 0% | 0% | 0% | 0% | 0% | 0% | 0% | 10% | pest or weed control at 250 g/ha [7]: 10%; pest or weed control at 15.625 g/ha [8]: 0%; pest or weed control at 62.5 g/ha [8]: 0%; pest or weed control at 250 g/ha [8]: 0%; plant injury at 15.625 g/ha [9]: 10%; plant injury at 62.5 g/ha [9]: 0%; plant injury at 250 g/ha [9]: 10%; pest or weed control at 15.625 g/ha [10]: 0%; pest or weed control at 62.5 g/ha [10]: 20%; pest or weed control at 250 g/ha [10]: 60%; pest or weed control at 15.625 g/ha [11]: 0%; pest or weed control at 62.5 g/ha [11]: 0%; pest or weed control at 250 g/ha [11]: 0%; pest or weed control at 15.625 g/ha [12]: 0%; pest or weed control at 62.5 g/ha [12]: 0%; pest or weed control at 250 g/ha [12]: 50%

Source: patent publication US12077503B2, “Substituted cyclic amides and their use as herbicides” (FMC CORPORATION, priority 2015, dated 2024)
